# Measurements from patent US12220410B2, “Antitumor composition” (priority 2019, dated 2025).
# Read-outs that look alike come from different tables or passages of the source.
# Legend:
# [1] = system: human acute myelogenous leukemia (AML) cell line KG-1; format: in vivo
# [2] = system: human acute myelogenous leukemia (AML) cell line KG-1; format: in vivo; remark: listed apart in the source
# [3] = system: human diffuse large B-cell lymphoma cell line OCI-Ly7; format: in vivo
# [4] = system: human breast cancer cell line MDA-MB-453; test: In vivo antitumor effect test, MDA-MB-453 tumor, compound A and lapatinib (Example 37); parameters: species or system NOD-SCID mice
# Experimental: The tumor volume was calculated from tumor diameters by the following formula: (Long diameter×[Short diameter]^2×0.5). Using the calculated tumor volume value, the relative tumor volume (ratio of the tumor volume on the day of measurement to the baseline tumor volume on Day 1) was calculated. […] Further, the tumor growth delay rate (% TGD) was calculated according to the following formula: % TGD={(T−C)/C}×100, Where: • T: […] relative tumor volume of the control group to reach 1600% 6) Statistical Analysis
# Compound A was suspended in a 1% hypromellose solution to prepare 20 mg/mL test substance suspensions (a suspension for preparing a single administration solution and a suspension for preparing a 100 mg/kg combined administration solution). The 20 mg/mL test substance suspensions were diluted with a 1% hypromellose solution to prepare 10 mg/mL (100 mg/kg administration solution), 6 mg/mL (suspension for preparing a 30 mg/kg combined administration solution), and 3 mg/mL (30 mg/kg administration solution) test substance suspensions. Lapatinib was suspended in a 1% hypromellose solution to prepare a 20 mg/mL suspension for preparing a 100 mg/kg lapatinib combined administration solution. The 20 mg/mL suspension was diluted with a 1% hypromellose solution to prepare a 10 mg/mL suspension for 100 mg/kg single administration. The administration solution of the combination group was prepared by mixing the 6 mg/mL compound A suspension and the 20 mg/mL lapatinib suspension at 1:1, or mixing the 20 mg/mL compound A suspension and the 20 mg/mL lapatinib suspension at 1:1.
# MDA-MB-453 was obtained from ATCC. […] The collected cells were suspended in serum-free RPMI 1640 medium at 1.0×10^8 cells/mL.
# 5-week-old female NOD-SCID mice (NOD.CB17-Prkdcscid/J, produced by Charles River Japan Co., Ltd.) were used. The female NOD-SCID mice were bred in the same manner as in Example 36. The cell suspension was inoculated at 2×10^7 cells/body into the subcutaneous space of the right axillary region of the 6-week-old NOD-SCID mice, and the mice were grouped in the same manner as in Example 36 using the tumor volume as an index.
# The administration was started on the next day of the grouping (Day 2), and compound A and lapatinib were orally administered once a day for 28 consecutive days. Each group (N=8) was treated as follows. • (1) Control (solvent control) group: 1% hypromellose solution • (2) Compound A (30 mg/kg) treated group: 30 mg/kg of compound A (oral administration once a day for 28 consecutive days) • (3) Compound A (100 mg/kg) treated group: 100 mg/kg of compound A (oral administration once a day for 28 consecutive days) • (4) Lapatinib (100 mg/kg) treated group: 100 mg/kg of lapatinib (oral administration once a day for 28 consecutive days) • (5) Combination group 1: 30 mg/kg of compound A (oral administration once a day for 28 consecutive days)+100 mg/kg of lapatinib (oral administration once a day for 28 consecutive days) • (6) Combination group 2: 100 mg/kg of compound A (oral administration once a day for 28 consecutive days)+100 mg/kg of lapatinib (oral administration once a day for 28 consecutive days)
# [5] = system: human diffuse large B-cell lymphoma (DLBCL) cell line OCI-Ly7; test: In vitro cell growth inhibition test, OCI-Ly7 (cell viability, combination index); format: cell-based; conditions: compound A 0 nM, OCI-Ly7
# [6] = system: human follicular lymphoma cell line DOHH-2; test: In vitro cell growth inhibition test (CellTiter-Fluor), DOHH-2; format: cell-based; conditions: for IC50: Homo sapiens, DOHH-2, 120 h; for FIC (fractional inhibitory concentration): DOHH-2
# [7] = system: human diffuse large B-cell lymphoma cell line OCI-Ly7; format: in vivo; remark: listed apart in the source
# [8] = system: human diffuse large B-cell lymphoma cell line OCI-Ly7; format: in vivo; remark: listed apart in the source
# [9] = rituximab 10 mg/kg intraperitoneally on Days 2, 9, 16, relative tumor volume 600%
# [10] = lapatinib 100 mg/kg orally once a day for 28 days, relative tumor volume 200%
# [11] = bendamustine 15 mg/kg intraperitoneally on Days 2, 3, 4, 5, 6, relative tumor volume 1600%
# [12] = cyclophosphamide 50 mg/kg intraperitoneally on Days 2, 5, 9, 12, relative tumor volume 1600%
molecule,measurement,setting,value
"Nc1ccn([C@@H]2O[C@H](CO)[C@@H](O)[C@@H]2O)c(=O)n1 [Cytarabine, reference compound]",antitumor effect on KG-1 tumor (monotherapy),"[1]; compound A 30 mg/kg, cytarabine 50 mg/kg",antitumor effect
same,T/C (ratio of relative tumor volume of treated group to control group),"[1]; cytarabine monotherapy 50 mg/kg intraperitoneally, 5-day administration and 2-day cessation, Day 16",62.3%
"Nc1ncn([C@H]2C[C@H](O)[C@@H](CO)O2)c(=O)n1 [Decitabine, 5-aza-2′-deoxycytidine, reference compound]",antitumor effect on KG-1 tumor (monotherapy),"[2]; compound A 30 mg/kg, decitabine 1 mg/kg",antitumor effect
same,T/C (ratio of relative tumor volume of treated group to control group),"[2]; decitabine monotherapy 1 mg/kg intraperitoneally, twice a week, Day 23",27.7%
"Rituximab: anti-CD20 antibody; Rituxan (trademark) 100 mg/10 mL, purchased from Genentech [reference compound]",effectiveness of monotherapy (tumor growth delay),"[3]; 30 mg/kg of compound A, 10 mg/kg of rituximab",effective
same,Median Time (time for relative tumor volume to reach 600%),"[3]; rituximab 10 mg/kg intraperitoneally on Days 2, 9, 16",28.4 days
same,Tumor growth delay,[3]; [9],12.1 days
same,Tumor growth delay rate,[3]; [9],74.2%
"CS(=O)(=O)CCNCc1ccc(-c2ccc3ncnc(Nc4ccc(OCc5cccc(F)c5)c(Cl)c4)c3c2)o1 [Lapatinib, reference compound]",effectiveness of monotherapy (tumor growth delay),"[4]; 30 or 100 mg/kg of compound A, 100 mg/kg of lapatinib",effective
same,Median Time (time for relative tumor volume to reach 200%),[4]; lapatinib 100 mg/kg orally once a day for 28 days,34.2 days
same,Tumor growth delay,[4]; [10],11.4 days
same,Tumor growth delay rate,[4]; [10],50.0%
Cn1c(CCCC(=O)O)nc2cc(N(CCCl)CCCl)ccc21 [Bendamustine],Cell viability (ratio relative to the drug-free control),[5]; bendamustine 1.25 nM,0.93
same,Cell viability (ratio relative to the drug-free control),[5]; bendamustine 2.5 nM,0.87
same,Cell viability (ratio relative to the drug-free control),[5]; bendamustine 5 nM,0.66
same,Cell viability (ratio relative to the drug-free control),[5]; bendamustine 10 nM,0.29
same,IC50,"[6]; read-out: IC50 value of bendamustine in each concentration of compound A, compound A 0 nM (bendamustine alone), DOHH-2, 1000 cells/well, 120 hours",9870 nM
same,IC50,"[6]; read-out: IC50 value of bendamustine in each concentration of compound A, compound A 39.1 nM, DOHH-2, 120 hours",5590 nM
same,IC50,"[6]; read-out: IC50 value of bendamustine in each concentration of compound A, compound A 78.1 nM, DOHH-2, 120 hours",2960 nM
same,IC50,"[6]; read-out: IC50 value of bendamustine in each concentration of compound A, compound A 156.3 nM, DOHH-2, 120 hours",1500 nM
same,IC50,"[6]; read-out: IC50 value of bendamustine in each concentration of compound A, compound A 312.5 nM, DOHH-2, 120 hours",40.5 nM
same,FIC (fractional inhibitory concentration),"[6]; bendamustine fixed at 0 nM, compound A at its IC50",0
same,FIC (fractional inhibitory concentration),"[6]; bendamustine fixed at 1250 nM, compound A at its IC50",0.127
same,FIC (fractional inhibitory concentration),"[6]; bendamustine fixed at 2500 nM, compound A at its IC50",0.253
same,FIC (fractional inhibitory concentration),"[6]; bendamustine fixed at 5000 nM, compound A at its IC50",0.506
same,FIC (fractional inhibitory concentration),"[6]; compound A fixed at 0 nM, bendamustine at its IC50",1
same,FIC (fractional inhibitory concentration),"[6]; compound A fixed at 39.1 nM, bendamustine at its IC50",0.566
same,FIC (fractional inhibitory concentration),"[6]; compound A fixed at 78.1 nM, bendamustine at its IC50",0.300
same,FIC (fractional inhibitory concentration),"[6]; compound A fixed at 156.3 nM, bendamustine at its IC50",0.152
same,FIC (fractional inhibitory concentration),"[6]; compound A fixed at 312.5 nM, bendamustine at its IC50",0.004
same,effectiveness of monotherapy (tumor growth delay),"[7]; 30 mg/kg of compound A, 15 mg/kg of bendamustine",effective
same,Median Time (time for relative tumor volume to reach 1600%),"[7]; bendamustine 15 mg/kg intraperitoneally on Days 2, 3, 4, 5, 6",24.3 days
same,Tumor growth delay,[7]; [11],8.8 days
same,Tumor growth delay rate,[7]; [11],56.5%
"O=P1(N(CCCl)CCCl)NCCCO1 (centres unmarked) [Cyclophosphamide, reference compound]",effectiveness of monotherapy (tumor growth delay),"[8]; 30 or 100 mg/kg of compound A, 50 mg/kg of cyclophosphamide",effective
same,Median Time (time for relative tumor volume to reach 1600%),"[8]; cyclophosphamide 50 mg/kg intraperitoneally on Days 2, 5, 9, 12",23.4 days
same,Tumor growth delay,[8]; [12],10.7 days
same,Tumor growth delay rate,[8]; [12],83.9%
